# Measured values from US9212186B2, “Bicyclic pyrazole LRRK2 small molecule inhibitors” (Genentech, Inc., priority 2012, dated 2015).
# Target: LRRK2 G2019S (Homo sapiens (Human), UniProt Q5S007, G2019S)
# Experiment: In Vitro LRRK2 Lanthascreen Binding Assay
# Experimental: In Vitro LRRK2 Lanthascreen Binding Assay
# This assay was used to determine a compound's potency in inhibiting activity of LRRK2 by determining, Kiapp, IC50, or percent inhibition values. In 384 well proxiplates F black, shallow well plates LRRK2, Eu-anti-GST-antibody, Alexa Fluor® Kinase tracer 236 and test compound were incubated together.
# Binding of the Alexa Fluor® “tracer” to a kinase is detected by addition of a Eu-labeled anti-GST antibody. Binding of the tracer and antibody to a kinase results in a high degree of FRET, whereas displacement of the tracer with a kinase inhibitor results in a loss of FRET.
# Assay conditions and materials used were as follows:
# Final Assay Conditions: • GST-LRRK2 G2019S 10 nM
# Eu-anti-GST-antibody 2 nM • Kinase tracer 236 8.5 nM • Kinase reaction time: 1 hour • Temperature: ambient • Total volume: 15 μl • DMSO 1%
# 384 well proxiplates F black shallow well Perkin Elmer cat #6008260
# Eu-labeled anti-GST antibody Invitrogen cat # PV5594
# Alexa Fluor® Kinase tracer 236 Invitrogen cat #PV5592 • TRIS-HCl Sigma cat # T3253 • EGTA Sigma cat # E3889 • Brij-35: Sigma cat # B4184 (30% w/v) • DMSO: Sigma cat # D8418 • MgCl2 Sigma cat # M9272
# Reaction Buffer: H2O/50 mM Tris, pH 7.4/10 mM MgCl2/1 mM EGTA/0.01% Brij 35
# Compound Plate Preparation:
# Serially dilute test compounds (10 mM stock) 1:3.16 (20 ul+43.2 ul) in 100% DMSO. 12 pt curve. Dilute each concentration 1:33.3 (3 ul+97 ul) in reaction buffer. Stamp 5 ul to assay plate. Final top test concentration 100 uM
# Total and Blank Preparation:
# In Reaction Buffer, 5 ul of DMSO (3%) was added to total and blank wells and 5 ul of Eu-labeled anti-GST antibody (6 nM) was added to blank wells. Add 5 ul LRRK2 (30 nM)/Eu-labeled anti-GST antibody (6 nM) mix to compound and total wells.
# Add 5 ul kinase tracer (25.5 nM) to all wells. Incubate plates at room temperature for 1 hour on a plate shaker (gentle shaking). Read on Perkin Elmer EnVision reader HTRF protocol
# Calculate ratio: (665/620)*10000. Subtract mean background values from all data points. Calculate % of control for each test value. Plot % of control vs Compound concentration. Calculate Ki Value (xlfit curve fitting—Morrison equation). Results expressed as a Ki in μM. Equation for Ki: Y=V0*(1−((x+Ki*(1+S/Km)+Et)/(2*Et)−(((x+Ki*(1+S/Km)+Et)^2−(4*Et*x))^0.5)/(2*Et)))
# Tracer concentration (S)=8.5 nM
# Chain of LRRK2 G2019S (Q5S007 whole entry G2019S): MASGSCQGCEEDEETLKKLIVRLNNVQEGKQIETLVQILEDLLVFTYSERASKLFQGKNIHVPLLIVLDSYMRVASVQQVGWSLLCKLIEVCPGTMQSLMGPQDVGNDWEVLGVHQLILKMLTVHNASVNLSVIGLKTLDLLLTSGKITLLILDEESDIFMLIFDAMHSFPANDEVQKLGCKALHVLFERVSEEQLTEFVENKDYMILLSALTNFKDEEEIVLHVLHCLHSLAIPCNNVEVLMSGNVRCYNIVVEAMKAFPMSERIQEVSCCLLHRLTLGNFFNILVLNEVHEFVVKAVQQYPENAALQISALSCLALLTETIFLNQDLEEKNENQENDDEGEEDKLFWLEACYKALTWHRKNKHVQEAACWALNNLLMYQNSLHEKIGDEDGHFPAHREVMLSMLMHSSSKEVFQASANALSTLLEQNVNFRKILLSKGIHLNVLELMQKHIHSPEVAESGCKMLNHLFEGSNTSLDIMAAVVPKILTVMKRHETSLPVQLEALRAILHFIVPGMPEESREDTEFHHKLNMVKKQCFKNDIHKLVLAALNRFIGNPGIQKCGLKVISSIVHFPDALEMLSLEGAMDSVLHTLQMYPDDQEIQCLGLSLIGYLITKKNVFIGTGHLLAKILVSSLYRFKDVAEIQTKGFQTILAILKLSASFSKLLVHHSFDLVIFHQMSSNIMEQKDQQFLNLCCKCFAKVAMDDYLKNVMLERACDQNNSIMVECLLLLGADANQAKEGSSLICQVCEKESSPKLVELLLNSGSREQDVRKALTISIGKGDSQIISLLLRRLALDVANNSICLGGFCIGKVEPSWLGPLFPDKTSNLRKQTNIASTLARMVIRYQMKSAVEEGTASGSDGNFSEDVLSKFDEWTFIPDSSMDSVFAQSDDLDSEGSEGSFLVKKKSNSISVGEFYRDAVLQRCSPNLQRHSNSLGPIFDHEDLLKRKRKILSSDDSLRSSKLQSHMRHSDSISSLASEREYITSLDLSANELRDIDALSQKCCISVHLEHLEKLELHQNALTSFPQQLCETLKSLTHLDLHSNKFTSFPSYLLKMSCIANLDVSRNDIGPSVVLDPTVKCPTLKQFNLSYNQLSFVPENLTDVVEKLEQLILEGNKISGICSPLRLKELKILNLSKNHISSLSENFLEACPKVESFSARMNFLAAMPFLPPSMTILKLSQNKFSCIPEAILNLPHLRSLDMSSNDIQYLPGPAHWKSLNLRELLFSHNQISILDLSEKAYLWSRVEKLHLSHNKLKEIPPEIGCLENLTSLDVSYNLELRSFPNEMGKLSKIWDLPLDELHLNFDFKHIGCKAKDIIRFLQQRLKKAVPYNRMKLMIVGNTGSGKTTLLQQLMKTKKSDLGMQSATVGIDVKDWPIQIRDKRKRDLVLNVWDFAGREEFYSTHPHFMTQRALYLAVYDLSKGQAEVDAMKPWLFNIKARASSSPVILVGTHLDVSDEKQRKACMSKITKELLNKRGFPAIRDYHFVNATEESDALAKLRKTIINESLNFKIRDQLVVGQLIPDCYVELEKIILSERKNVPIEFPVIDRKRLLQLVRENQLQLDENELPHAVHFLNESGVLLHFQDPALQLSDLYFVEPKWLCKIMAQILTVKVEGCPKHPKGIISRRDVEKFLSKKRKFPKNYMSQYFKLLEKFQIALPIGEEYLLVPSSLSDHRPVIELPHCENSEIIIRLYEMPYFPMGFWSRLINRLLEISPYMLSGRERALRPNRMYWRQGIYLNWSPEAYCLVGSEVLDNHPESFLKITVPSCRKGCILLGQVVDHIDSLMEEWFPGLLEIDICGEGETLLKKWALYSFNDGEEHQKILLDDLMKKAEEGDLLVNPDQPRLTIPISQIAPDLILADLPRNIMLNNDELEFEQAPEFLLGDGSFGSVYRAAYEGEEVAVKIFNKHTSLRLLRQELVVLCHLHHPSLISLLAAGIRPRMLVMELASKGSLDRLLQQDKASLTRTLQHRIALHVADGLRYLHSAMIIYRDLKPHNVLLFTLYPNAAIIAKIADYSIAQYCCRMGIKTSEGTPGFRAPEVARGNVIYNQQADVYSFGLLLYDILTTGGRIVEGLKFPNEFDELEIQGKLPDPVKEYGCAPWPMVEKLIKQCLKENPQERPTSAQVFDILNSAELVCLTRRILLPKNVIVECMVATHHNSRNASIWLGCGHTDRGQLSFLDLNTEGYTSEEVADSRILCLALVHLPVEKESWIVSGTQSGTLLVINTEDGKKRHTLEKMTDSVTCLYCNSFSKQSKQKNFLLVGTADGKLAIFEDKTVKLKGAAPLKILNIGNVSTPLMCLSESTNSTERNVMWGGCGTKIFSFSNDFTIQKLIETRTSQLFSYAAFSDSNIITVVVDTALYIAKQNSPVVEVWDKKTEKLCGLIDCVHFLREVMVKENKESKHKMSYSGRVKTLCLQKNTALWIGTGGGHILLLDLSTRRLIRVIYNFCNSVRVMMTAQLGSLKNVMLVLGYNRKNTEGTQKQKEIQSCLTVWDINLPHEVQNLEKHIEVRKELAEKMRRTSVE
row,SMILES,Ki [nM]
1,"CNc1nc(Nc2cnn3c2CCC3)ncc1C(F)(F)F [Example 24, N2-(5,6-dihydro-4H-pyrrolo[1,2-b]pyrazol-3-yl)-N4-methyl-5-(trifluoromethyl)pyrimidine-2,4-diamine]",0.6
2,"CNc1nc(Nc2cnn3c2CCCC3)ncc1C(F)(F)F [Example 3, N4-methyl-N2-(4,5,6,7-tetrahydropyrazolo[1,5-a]pyridin-3-yl)-5-(trifluoromethyl)pyrimidine-2,4-diamine]",7.5
3,"CNc1nc(Nc2cnn3c2N(C)CC3)ncc1C(F)(F)F [Example 25, N4-methyl-N2-(1-methyl-2,3-dihydro-1H-imidazo[1,2-b]pyrazol-7-yl)-5-(trifluoromethyl)pyrimidine-2,4-diamine]",31.2
4,"CNc1nc(Nc2cnn3c2COCC3)ncc1C(F)(F)F [Example 17, N2-(6,7-dihydro-4H-pyrazolo[5,1-c][1,4]oxazin-3-yl)-N4-methyl-5-(trifluoromethyl)pyrimidine-2,4-diamine]",2.3
5,"CNc1nc(Nc2cnn3c2[C@@H](C)N(C)CC3)ncc1C(F)(F)F [Example 6, (R)-N2-(4,5-dimethyl-4,5,6,7-tetrahydropyrazolo[1,5-a]pyrazin-3-yl)-N4-methyl-5-(trifluoromethyl)pyrimidine-2,4-diamine]",184
6,"CNc1nc(Nc2cnn3c2C(C)OCC3(C)C)ncc1C(F)(F)F (stereo not shown) [Example 11, N4-methyl-5-(trifluoromethyl)-N2-(4,7,7-trimethyl-6,7-dihydro-4H-pyrazolo[5,1-c][1,4]oxazin-3-yl)pyrimidine-2,4-diamine]",212
7,"CNc1nc(Nc2cnn3c2C2(COC2)OCC3)ncc1C(F)(F)F [Example 27, N^2-(6′7′-dihydrospiro[oxetane-3,4′-pyrazolo[5,1-c][1,4]oxazine]-3-yl)-N^4-methyl-5-(trifluoromethyl)pyrimidine-2,4-diamine]",819
8,"C[C@H]1c2c(Nc3ncc(C(F)(F)F)c(NC4CC4)n3)cnn2CCN1C [Example 9, (S)-N4-cyclopropyl-N2-(4,5-dimethyl-4,5,6,7-tetrahydropyrazolo[1,5-a]pyrazin-3-yl)-5-(trifluoromethyl)pyrimidine-2,4-diamine]",4.9
9,"CNc1nc(Nc2cnn3c2CN(C)CC3)ncc1C(F)(F)F [Example 26, N^4-methyl-N^2-(5-methyl-4,5,6,7-tetrahydropyrazolo[1,5-a]pyrazin-3-yl)-5-(trifluoromethyl)pyrimidine-2,4-diamine]",33.5
10,"CNc1nc(Nc2cc3n(n2)CCOC3)ncc1C(F)(F)F [Example 30, N^2-(6,7-dihydro-4H-pyrazolo[5,1-c][1,4]oxazin-2-yl)-N^4-methyl-5-(trifluoromethyl)pyrimidine-2,4-diamine]",10.9
11,"CNc1nc(Nc2cnn3c2C(C)OCC3(C)C)ncc1C(F)(F)F (single isomer, unassigned) [Example 12, N4-methyl-5-(trifluoromethyl)-N2-(4,7,7-trimethyl-6,7-dihydro-4H-pyrazolo[5,1-c][1,4]oxazin-3-yl)pyrimidine-2,4-diamine]",2.6
12,"CNc1nc(Nc2cnn3c2COC(C)(C)C3)ncc1C(F)(F)F [Example 22, N2-(6,6-dimethyl-6,7-dihydro-4H-pyrazolo[5,1-c][1,4]oxazin-3-yl)-N4-methyl-5-(trifluoromethyl)pyrimidine-2,4-diamine]",0.9
13,"C[C@@H]1c2c(Nc3ncc(C(F)(F)F)c(NC4CC4)n3)cnn2CCN1C [Example 10, (R)-N4-cyclopropyl-N2-(4,5-dimethyl-4,5,6,7-tetrahydropyrazolo[1,5-a]pyrazin-3-yl)-5-(trifluoromethyl)pyrimidine-2,4-diamine]",44.4

# The remaining lines, values ahead:
row,Ki [nM],SMILES
1,1.8,"CNc1nc(Nc2cnn3c2C(C)OC(C)C3)ncc1C(F)(F)F (stereo not shown) [Example 18, N2-(4,6-dimethyl-6,7-dihydro-4H-pyrazolo[5,1-c][1,4]oxazin-3-yl)-N4-methyl-5-(trifluoromethyl)pyrimidine-2,4-diamine]"
2,47.7,"CCNc1nc(Nc2cnn3c2C(C)OCC3)ncc1C(F)(F)F (stereo not shown) [Example 13, N4-ethyl-N2-(4-methyl-6,7-dihydro-4H-pyrazolo[5,1-c][1,4]oxazin-3-yl)-5-(trifluoromethyl)pyrimidine-2,4-diamine]"
3,3,"CNc1nc(Nc2cnn3c2C(C)OCC3)ncc1C(F)(F)F (single isomer, unassigned) [Example 16, N4-methyl-N2-(4-methyl-6,7-dihydro-4H-pyrazolo[5,1-c][1,4]oxazin-3-yl)-5-(trifluoromethyl)pyrimidine-2,4-diamine]"
4,20,"CNc1nc(Nc2cnn3c2[C@H](C)N(C)CC3)ncc1C(F)(F)F [Example 5, (S)-N2-(4,5-dimethyl-4,5,6,7-tetrahydropyrazolo[1,5-a]pyrazin-3-yl)-N4-methyl-5-(trifluoromethyl)pyrimidine-2,4-diamine]"
5,9.5,"CCNc1nc(Nc2cnn3c2[C@H](C)N(C)CC3)ncc1C(F)(F)F [Example 7, (S)-N2-(4,5-dimethyl-4,5,6,7-tetrahydropyrazolo[1,5-a]pyrazin-3-yl)-N4-ethyl-5-(trifluoromethyl)pyrimidine-2,4-diamine]"
6,0.3,"CCNc1nc(Nc2cnn3c2COC(C)(C)C3)ncc1C(F)(F)F [Example 23, N2-(6,6-dimethyl-6,7-dihydro-4H-pyrazolo[5,1-c][1,4]oxazin-3-yl)-N4-ethyl-5-(trifluoromethyl)pyrimidine-2,4-diamine]"
7,390,"CNc1nc(Nc2cnn3c2C(C)OC(C)C3)ncc1C(F)(F)F (single isomer, unassigned) [Example 21, N2-(4,6-dimethyl-6,7-dihydro-4H-pyrazolo[5,1-c][1,4]oxazin-3-yl)-N4-methyl-5-(trifluoromethyl)pyrimidine-2,4-diamine]"
8,5.7,"CNc1nc(Nc2cnn3c2C(C)OC(C)C3)ncc1C(F)(F)F (single isomer, unassigned) [Example 20, N2-(4,6-dimethyl-6,7-dihydro-4H-pyrazolo[5,1-c][1,4]oxazin-3-yl)-N4-methyl-5-(trifluoromethyl)pyrimidine-2,4-diamine]"
9,279,"CNc1nc(Nc2cnn3c2C(C)OCC3)ncc1C(F)(F)F (stereo not shown) [Example 15, N4-methyl-N2-(4-methyl-6,7-dihydro-4H-pyrazolo[5,1-c][1,4]oxazin-3-yl)-5-(trifluoromethyl)pyrimidine-2,4-diamine]"
10,61.3,"CNc1nc(Nc2cnn3c2C(C)OC(C)C3)ncc1C(F)(F)F (single isomer, unassigned) [Example 19, N2-(4,6-dimethyl-6,7-dihydro-4H-pyrazolo[5,1-c][1,4]oxazin-3-yl)-N4-methyl-5-(trifluoromethyl)pyrimidine-2,4-diamine]"
11,1.2,"CCNc1nc(Nc2cnn3c2C(C)OCC3)ncc1C(F)(F)F (single isomer, unassigned) [Example 14, N4-ethyl-N2-(4-methyl-6,7-dihydro-4H-pyrazolo[5,1-c][1,4]oxazin-3-yl)-5-(trifluoromethyl)pyrimidine-2,4-diamine]"
12,144,"CCNc1nc(Nc2cnn3c2[C@@H](C)N(C)CC3)ncc1C(F)(F)F [Example 8, (R)-N2-(4,5-dimethyl-4,5,6,7-tetrahydropyrazolo[1,5-a]pyrazin-3-yl)-N4-ethyl-5-(trifluoromethyl)pyrimidine-2,4-diamine]"
